From patent US11278514B2, “Composition compromising dunnione as effective ingredient for prevention or alleviation of hair loss” (NADIANBIO LTD., priority 2018, dated 2022)
Entries after “also recorded” stand apart in the source; their conditions may differ. Where two headings read alike, the source gives them in different places.

How the values were obtained:
NQO1 knockout mice [1] = test system: NQO1 knockout mice
Procedure: (§1) The day, on which the NQO1 knockout mice were hair-removed according to Example 1, was set as day 0, and the animals were divided into the following experimental groups and used for experiments: normal group (Control, 4 animals) in which only PBS is intraperitoneally injected on day 9; cyclophosphamide group (CYP, 6 animals) in which cyclophosphamide (150 mg/kg) is intraperitoneally injected on day 9; combination-treated group (CYP+Dunnione, 6 animals) in which dunnione is orally administered on a daily basis starting from 3 days prior to treatment with cyclophosphamide; and dunnione alone-treated group (Dunnione, 4 animals) in which only dunnione (20 mg/kg) is administered (FIG. 1).

NF-κB p65 = assay: Acetylation of NF-κB p65 in skin tissue (western blot), cyclophosphamide alopecia model; assay type: in vivo, mice; conditions: cyclophosphamide plus dunnione; day 18
Procedure: (§2) In the cyclophosphamide-induced alopecia mouse model of Example 2, expression level of Sirt1 protein and acetylation reaction of the target proteins thereof, NF-κB p65 and p53, were identified on the skin tissue obtained on day 18 after hair removal.
(§3) Specifically, 10 mg of the skin tissue obtained from the animal model prepared by the method in Example 2 was homogenized by addition of a lysis solution (RIPA lysis buffer). Then, centrifugation was performed at 14,000 rpm for 10 minutes. The protein concentration in the supernatant was quantified with a bovine serum albumin (BSA) standard solution. The skin tissue protein was used in an amount of 40 μg per test solution. First, the homogenized skin tissue was mixed with a sample solution (Bio-Rad, 161-0747) and inactivated at a temperature of 95° C. for 5 minutes. Thereafter, the protein was separated by a sodium dodecyl sulfate-polyacrylamide gel electrophoresis (SDS-PAGE) method, and then transferred to a nitrocellulose membrane. Treatment with anti-Sirt1 antibody (Abcam), anti-acetyl NF-κB p65 antibody and anti-acetyl p53 antibody (Cell Signaling Technologies), and anti-β-actin antibody (Santa Cruz Biotechnology) as primary antibodies were performed, and reaction was allowed to proceed. […]

intracellular NAD^+ = conditions: reported to date (Pandit et al. 2015; Shen et al. 2017); cited from earlier work
NAD^+ = assay: NAD+ and NADH concentrations and NAD+/NADH ratio in skin tissue, cyclophosphamide alopecia model; assay type: in vivo, mice; conditions: cyclophosphamide plus dunnione vs cyclophosphamide
Procedure: Specifically, in order to quantify the NAD^+ and NADH concentrations in the skin tissue obtained from the animal model prepared by the method in Example 2, the skin tissue was tested with the analysis kit (E2ND-100) of BioAssay Systems according to the instruction manual, and then the NAD^+/NADH ratio was analyzed. First, 10 mg of skin tissue was collected from the animal model. Then, 100 μl of extraction solution for NAD^+ or NADH was added to the skin tissue and homogenized. Then, the homogenized skin tissue was subjected to heat treatment at 60° C. for 5 minutes. Neutralization was performed by addition of the same volume of the extraction solution, and then centrifugation was performed at 14,000 rpm for 5 minutes to obtain the supernatant. Then, a developing reagent was added to the supernatant. The NAD^+ and NADH concentrations were determined from the absorbance measured at a wavelength of 565 nm, and the NAD^+/NADH ratio was analyzed.

[2] = target: NAD(P)H: quinone oxidoreductase 1 (NQO1) (Homo sapiens, UniProt P15559); conditions: reported to date (Pandit et al. 2015; Shen et al. 2017); cited from earlier work
NAD(P)H: quinone oxidoreductase 1 (NQO1), sequence (P15559 whole entry, species assumed): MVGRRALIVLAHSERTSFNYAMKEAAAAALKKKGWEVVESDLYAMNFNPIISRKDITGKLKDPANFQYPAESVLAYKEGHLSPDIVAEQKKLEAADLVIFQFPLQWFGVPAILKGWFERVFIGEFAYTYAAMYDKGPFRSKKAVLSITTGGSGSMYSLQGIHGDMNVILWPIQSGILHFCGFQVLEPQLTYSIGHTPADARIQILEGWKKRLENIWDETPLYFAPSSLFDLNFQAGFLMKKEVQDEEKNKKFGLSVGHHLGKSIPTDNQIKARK

NQO1 knockout mice [3] = assay: Histological changes in skin (H&E) in NQO1 knockout mice treated with 6×TAC; assay type: in vivo; conditions: day 18
Procedure: The day, on which the NQO1 knockout mice were hair-removed according to Example 1, was set as day 0, and the mice in each of the experimental groups described in Example 5 were sacrificed on day 18. Subsequently, the mouse dorsal skin was dissected parallel or perpendicular to the vertebral line, and removed. The removed skin was fixed with a Bouin's solution for 12 hours, subjected to dehydration, and embedded in paraffin. Then, the resulting product was prepared into 5-μm sections. The prepared sections were subjected to hematoxylin and eosin (H&E) staining, and histological changes in the skin in each experimental group were observed.

[4] = test system: C57BL/6 mice having alopecia caused by cyclophosphamide
Procedure: as §1, with “the” for “the NQO1 knockout”, “in” for “according to”, “groups:” for “experimental groups and used for experiments:”
The day, on which the mice were hair-removed in Example 1, was set as day 0, and the mice in each of the experimental groups described in Example 2 were sacrificed on day 18. Subsequently, the mouse dorsal skin was dissected parallel or perpendicular to the vertebral line, and removed. The removed skin was fixed with a Bouin's solution for 12 hours, subjected to dehydration, and embedded in paraffin. Then, the resulting product was prepared into 5-μm sections. The prepared sections were subjected to hematoxylin and eosin (H&E) staining, and histological changes in the skin in each experimental group were observed.

NQO1 knockout mice [5] = conditions: day 18
Procedure: as §1
The day, on which the NQO1 knockout mice were hair-removed according to Example 1, was set as day 0, and the mice in each of the experimental groups described in Example 3 were sacrificed on day 18. Subsequently, the mouse dorsal skin was dissected parallel or perpendicular to the vertebral line, and removed. The removed skin was fixed with a Bouin's solution for 12 hours, subjected to dehydration, and embedded in paraffin. Then, the resulting product was prepared into 5-μm sections. The prepared sections were subjected to hematoxylin and eosin (H&E) staining, and histological changes in the skin in each experimental group were observed.

p53 = assay: Acetylation of p53 in skin tissue (western blot), cyclophosphamide alopecia model; assay type: in vivo, mice; conditions: cyclophosphamide plus dunnione; day 18
Procedure: as §2, §3

[6] = test system: C57BL/6 mice having alopecia caused by docetaxel, adriamycin, and cyclophosphamide; assay: Histological changes in skin (H&E) in animal model having alopecia caused by 6×TAC; assay type: in vivo; conditions: day 18
Procedure: The day, on which the mice were hair-removed in Example 1, was set as day 0, and the mice in each of the experimental groups described in Example 4 were sacrificed on day 18. Subsequently, the mouse dorsal skin was dissected parallel or perpendicular to the vertebral line, and removed. The removed skin was fixed with a Bouin's solution for 12 hours, subjected to dehydration, and embedded in paraffin. Then, the resulting product was prepared into 5-μm sections. The prepared sections were subjected to hematoxylin and eosin (H&E) staining, and histological changes in the skin in each experimental group were observed.

Sirt1 protein = assay: Expression level of Sirt1 protein in skin tissue (western blot), cyclophosphamide alopecia model; assay type: in vivo, mice; conditions: cyclophosphamide plus dunnione; day 18
Procedure: as §2, §3

[7] = 6×TAC+Dunnione combination-treated group

CC1OC2=C(C(=O)C(=O)c3ccccc32)C1(C)C (stereo not drawn) [dunnione, 2,3-dihydro-2,3,3-trimethyl-naphtho[1,2-b]furan-4,5-dione]
hair growth, visual observation of skin (NQO1 knockout mice [1]; CYP+Dun combination-treated group, until day 18): hair hardly grew until day 18 after hair removal; also recorded: progression of hair loss to a level similar to the cyclophosphamide alone-treated group | start of hair growth, visual observation of skin (NQO1 knockout mice [1]; dunnione alone (20 mg/kg)): hair began to grow starting from day 12 after hair removal | hair growth, visual observation of skin (NQO1 knockout mice [1]; dunnione alone (20 mg/kg), day 18): hair grew overall on day 18 so that the skin is full of hair and looks black | acetylation of NF-κB p65 in skin tissue (NF-κB p65): suppresses | intracellular NAD^+ (intracellular NAD^+): increase | NAD^+/NADH ratio in skin tissue (NAD^+; day 18): increases | NAD^+ concentration in skin tissue (NAD^+; day 18 after hair removal): increases | activity of the enzyme NQO1 [2]: increases | development of hair follicles and inner root sheaths (histology) (NQO1 knockout mice [3]; [7]): the hair follicles have poorly developed or the inner root sheaths have insufficiently developed; also recorded: falling-off of hair follicles and inner root sheaths in the skin tissue progresses | development of hair follicles and inner root sheaths (histology) (NQO1 knockout mice [3]; dunnione alone): the hair follicles and inner root sheaths have well developed overall | development of hair follicles and inner root sheaths (histology) ([4]; CYP+Dun combination-treated group, day 18 after hair removal): suppressed falling-off of hair follicles and inner root sheaths; also recorded: the hair follicles and the inner root sheaths have well developed overall | number of growing hairs (histology) ([4]; CYP+Dun compared with cyclophosphamide alone-treated group, day 18): increased number of hairs | development of hair follicles and inner root sheaths (histology) (NQO1 knockout mice [5]; CYP+Dun combination-treated group): the hair follicles have poorly developed or the inner root sheaths have insufficiently developed; also recorded: falling-off of hair follicles and inner root sheaths in the skin tissue progresses | development of hair follicles and inner root sheaths (histology) (NQO1 knockout mice [5]; dunnione alone): the hair follicles and inner root sheaths have well developed overall | acetylation of p53 in skin tissue (p53): suppresses | development of hair follicles and inner root sheaths (histology) [6, 7]: the hair follicles and the inner root sheaths have well developed overall; also recorded: suppressed falling-off of hair follicles and inner root sheaths | number of growing hairs (histology) ([6]; 6×TAC+Dunnione compared with 6×TAC alone-treated group): increased number of hairs | expression level of Sirt1 protein in skin tissue (Sirt1 protein): increases; also recorded: normalizes
